The text below walks through data of BindingDB's records for doi:10.1016/j.ejmech.2018.04.030 (Chungnam National University, 2018).

A short description of the test: Inhibition of IL-5 in mouse Y16 cells assessed as reduction in cell proliferation after 48 hrs by WST-1 assay.
Broadly, the IC50 is the concentration that inhibits the measured activity by half. Regarding `COc1ccc(/C=C2\Cc3cccc(OCC4CCCCC4)c3C2=O)cc1`, the IC50 was > 30 µM.

`COc1ccc(COc2cccc3c2C(=O)/C(=C/c2ccc(Cl)cc2)C3)cc1`: the IC50 was > 30 µM.

Regarding `O=c1c(Cc2ccc(O)cc2)coc2cccc(OCC3CCCCC3)c12`, the IC50 was 5 µM.

With `COc1ccc(COc2cccc3c2C(=O)/C(=C/c2ccc(O)cc2)C3)cc1`, the IC50 is > 30 µM.

As to `O=C1c2c(O)cccc2CC1Cc1ccc(O)cc1` (stereo unspecified), the IC50 is > 30 µM.

Take `Cc1ccc(CC2Cc3cccc(OCC4CCCCC4)c3C2=O)cc1` (stereo unspecified): the IC50 came to 24.5 µM.

Consider `O=C1c2c(cccc2OCc2ccccc2)CC1Cc1ccc(O)cc1` (stereo unspecified), for which the 50% inhibitory concentration (IC50) stood at 21 µM.

Regarding `COc1ccc(COc2cccc3c2C(=O)/C(=C/c2ccccc2)C3)cc1`, the IC50 is > 30 µM.

In the case of `COc1ccc(/C=C2\Cc3cccc(OCc4ccc(OC)cc4)c3C2=O)cc1`, the IC50 is > 30 µM.

With `O=C1c2c(cccc2OCC2CCCCC2)CC1Cc1cccc(O)c1` (stereo unspecified), the IC50 is 6 µM.

`COc1ccc(COc2cccc3c2C(=O)/C(=C/c2ccc(C)cc2)C3)cc1`: the IC50 is > 30 µM.

As to `O=C1c2c(cccc2OCCc2ccccc2)CC1Cc1cccc(O)c1` (stereo unspecified), the IC50 was determined as 28 µM.

Regarding `O=C1c2c(cccc2OCCC2CCCCC2)CC1Cc1ccc(O)cc1` (stereo unspecified), the IC50 is 18 µM.

On to `O=C1c2c(cccc2OCCc2ccccc2)CC1Cc1ccccc1O` (stereo unspecified), for which the IC50 is > 30 µM.

In the case of `O=C1/C(=C/c2ccccc2)Cc2cccc(O)c21`, the IC50 was > 30 µM.

Consider `O=C1/C(=C/c2ccc(O)cc2)Cc2cccc(O)c21`, for which the IC50 was > 30 µM.

Take `COc1ccc(/C=C2\Cc3cccc(O)c3C2=O)cc1`: the IC50 is > 30 µM.

For `COCOc1ccc(CC2Cc3cccc(OCC4CCCCC4)c3C2=O)cc1` (stereo unspecified), the IC50 came out at 17 µM.

Consider `O=C1c2c(cccc2OCCc2ccccc2)CC1Cc1ccc(O)cc1` (stereo unspecified), for which the IC50 worked out at 26 µM.

As to `O=C1/C(=C/c2ccc(O)cc2)Cc2cccc(OCC3CCCCC3)c21`, the IC50 is > 30 µM.

`O=C1c2c(cccc2OCC2CCCCC2)CC1Cc1ccc(O)cc1` (stereo unspecified): the IC50 was 4 µM.

With `O=C1/C(=C/c2ccc(O)cc2)Cc2cccc(OCc3ccc([N+](=O)[O-])cc3)c21`, the IC50 was > 30 µM.

As for `COc1ccc(CC2Cc3cccc(OCC4CCCCC4)c3C2=O)cc1` (stereo unspecified), the IC50 is > 30 µM.

With `O=C1c2c(cccc2OCC2CCCCC2)CC1Cc1ccc(Cl)cc1` (stereo unspecified), the IC50 came to 20.5 µM.

For `O=C1c2c(cccc2OCC2CCCCC2)CC1Cc1ccccc1O` (stereo unspecified), the half-inhibitory concentration (IC50) is > 30 µM.

Turning to `COCOc1ccc(/C=C2\Cc3cccc(OCC4CCCCC4)c3C2=O)cc1`, the IC50 was > 30 µM.
